In the data set the test system is cellulite in the thigh. Put plainly: Anticellulite activity, intradermal multiple injection in the thigh of female subjects. The data set is classed as in vivo, human. Particulars: for Irritation reactions: during treatment; for Irritation reactions / Reduction of the fatty layer thickness / Reduction of the thigh diameter / Skin firmness / Skin hydration / Surface smoothness / Subjective improvement: 50.0 mg in 2.5 mL intradermally by multiple injection; for Irritation reactions / Reduction of the fatty layer thickness / Reduction of the thigh diameter / Skin firmness / Skin hydration / Surface smoothness / Subjective improvement / Clinical grading: once per week; for Reduction of the fatty layer thickness / Reduction of the thigh diameter / Skin firmness / Skin hydration / Surface smoothness: end of treatment (week 6) vs base line; for Subjective improvement / Clinical grading: end of treatment (week 6); for Clinical grading: visual grading of degree of cellulite, scale 0-4, 50.0 mg in 2.5 mL intradermally; for Anticellulite activity (overall, in words): comparison among propionyl L-carnitine, acetyl L-carnitine and L-carnitine. The protocol: The effectiveness of intradermally administration of the product according to the invention was tested for its ability to reduce the appearance of cellulite in the thigh. A total of 54 female subjects ranging in age from 23 to 58 years of age were selected to evaluate the composition of the invention.
The subjects were selected based on their cellulite intensity in the thigh area having a bi-lateral symmetry. Subjects with grades 1 and 2 cellulite were chosen, as a 5-point grading scale was used to rate the cellulite severity of each subject. The scale ranged from 0 to 4, being 0=No cellulite; 1=Small bumps or depressions; 2=Striations and bumps; 3=Pronounced lumpiness of the skin and striations; 4=All of the above plus hard sub-surface nodules.
All subjects had the absence of any visible skin disease(s) which might be confused with a skin reaction from the test material and were in general good health with no known allergies, especially to cosmetic or toiletry products; had no evidence of acute or chronic disease; were not pregnant or lactating; were not on any diet or weight reduction program; and were not on any regular exercise program (immediately prior to or during the course of the study).
At baseline each subject received a visual examination conducted by a qualified technician and scored for the degree of cellulite. In the same day subjects were treated on the right and left thigh intradermally by multiple injection, (from 5 to 10 injections per thigh using a “Lebel needle” 4 mm×0.4 mm; 27 G). The treatment was repeated once per week for […] (week 0; 1; 2; 3; 4; and 5).
The degree of cellulite was evaluated according to the following scale: 0=No visible cellulite; 1=Very little visible cellulite, no dimpling; 2=Visible cellulite, evidence of shallow dimpling; 3=Easily visible cellulite, moderate to pronounced dimpling; 4=Extremely visible cellulite, heavy and deep dimpling.
The patients were divided in 3 groups and treated intradermally by multiple injection with a composition comprising:
Group A • Propionyl L-Carnitine: 50.0 mg; • Mannitol: 100.0 mg; • Sodium phosphate bibasic bi-hydrate: 24.0 mg; • Trometamine: 8.0 mg; • H2O: 2.5 mL (final volume);
Group B • Acetyl L-Carnitine: 50.0 mg; • Mannitol: 100.0 mg; • Sodium phosphate bibasic bi-hydrate: 24.0 mg; • Trometamine: 8.0 mg; • H2O: 2.5 mL (final volume); or
Group C • L-Carnitine: 50.0 mg; • Mannitol: 100.0 mg; • Sodium phosphate bibasic bi-hydrate: 24.0 mg; • Trometamine: 8.0 mg; • H2O: 2.5 mL (final volume).
Subjects were instructed to discontinue the use of their normal anti-cellulite products to avoid introducing any new products for treating cellulite during the study, and to not be on any diet or weight reduction program or on any regular exercise program immediately prior to or during the course of the study. Each subject was also instructed to keep a diary to document compliance.
After 7 days from the last treatment (week 6) the subjects returned to the hospital for a final visual evaluation.
The cellulite evaluation was made according the method described in Cosmetics & Toiletries, 61-70, June 1995, by comparison of the values before and after the treatment.

Structures are written as SMILES.

As for `CC(=O)O[C@H](CC(=O)[O-])C[N+](C)(C)C` [Acetyl L-carnitine, Acetyl L-Carnitine], the Irritation reactions was determined as 0, the “Reduction of the fatty layer thickness” value was −10%, the “Reduction of the thigh diameter” value is −2% and the Skin firmness result is recorded as “+6%”. Moreover, the Skin hydration entry is reported as “+8%”, the Surface smoothness entry is given as “+15%”, the Subjective improvement entry was “+15%” and the Clinical grading result is reported as “+8%”. Also, for the setting “summary of Table 1”, the “Anticellulite activity (overall, in words)” value (“Anticellulite activity” for short) was “inferior compared with that of propionyl L-carnitine”.
Regarding `CCC(=O)O[C@H](CC(=O)[O-])C[N+](C)(C)C` [Propionyl L-carnitine, Propionyl L-Carnitine], the Irritation reactions turned out to be 0, the “Reduction of the fatty layer thickness” value was −28%, the “Reduction of the thigh diameter” value is −11% and the Skin firmness entry is given as “+20%”. In addition, the Skin hydration entry is reported as “+27%”, the Surface smoothness entry is “+42%”, the Subjective improvement result was “+57%” and the Clinical grading entry is reported as “+34%”. Besides, for the setting “summary of Table 1”, the “Effect on skin infrastructure (dermis of the skin)” value is recorded as “improved skin infrastructure” and the “Anticellulite activity” value is “effectively ameliorate the cellulite condition”. Besides, the “Anticellulite activity” value (summary of Table 1, listed as compound of the invention) was “significantly higher respect to the activity of L-carnitine or acetyl L-carnitine”.
As to `C[N+](C)(C)C[C@H](O)CC(=O)[O-]` [L-carnitine, L-Carnitine], the “Reduction of the fatty layer thickness” value is given as −12%, the “Reduction of the thigh diameter” value is reported as −3%, the Skin firmness result is “+9%” and the Skin hydration entry is given as “+10%”. For the same compound, the Surface smoothness result is “+18%”, the Subjective improvement entry is listed as “+19%” and the Clinical grading entry was “+12%”. Moreover, the “Anticellulite activity” value (summary of Table 1) is listed as “inferior compared with that of propionyl L-carnitine”.
